Measured values from US20260116845A1, “LIPIDS AND COMPOSITIONS THEREOF” (Kernal Biologics, Inc., priority 2023, published 2026).

How the values were obtained:
[1] = system: Liver; assay: Ex-vivo luminescence signal from liver after IV Fluc mRNA LNPs in CD1 mice (IVIS); conditions: tail vein 1.0 mg/kg Day 0 and Day 2, imaging 18 hours after second dose, Table 4
[2] = system: AML12 Cell Line; assay: Transfection of AML12 Cell Line with FLuc mRNA LNPs (ONE-Glo EX luciferase signal); format: cell-based; conditions: 200 ng Fluc mRNA-LNP, 24 hours; Table 4
Method: (§1) mRNA encapsulated lipid nanoparticles (mRNA LNPs) were formulated using microfluidic mixing with a PNI Ignite instrument. Briefly, lipids (ionizable: structural: helper: PEG) were dissolved in ethanol and mixed with and aqueous solution of mRNA. These mRNA-loaded dispersions were then neutralized via a buffer exchange with a pre-determined buffer overnight. Afterwards, formed LNPs were concentrated with Amicon filter centrifugation, filtered, concentration of mRNA determined through a ribogreen assay, and frozen at −80° C. until use.
(§2) Cell lines were grown to confluence in T75 flasks using complete media of DMEM-F12 for AML12 and DMEM for both B16F10 and MC38.K. Cells were plated in a white 96 flat-well plate (AML12=20,000 cells/well, B16F10 and MC38.K=5,000 cells/well) with their respected media. Lipid nanoparticles were first diluted to 50 μg/ml using Opti-MEM and pre-incubated with mouse serum for 30 minutes to give an LNP concentration of 8 μg/ml. Cell media was replaced with Opti-MEM and LNPs were added to cells (200 ng of mRNA-LNP), placed back in the incubator, and allowed to transfect for 24 hours. Afterwards, 100 μl of Promega's ONE-Glo™ EX Luciferase Assay System or Promega's CellTiter-Glo® Luminescent Cell Viability Assay was added and mixed in their respective wells, followed by recording luminescence signals on a Thermo Scientific Varioskan LUX multimode microplate reader. The results are shown in FIG. 1, FIG. 2, FIG. 3, FIG. 4, FIG. 5, FIG. 6, FIG. 10, FIG. 11, and FIG. 21.

[3] = system: B16F10 Cell Line; assay: Transfection of B16F10 Cell Line with FLuc mRNA LNPs (ONE-Glo EX luciferase signal); format: cell-based; conditions: 200 ng Fluc mRNA-LNP, 24 hours; Table 4
Method: as §1, §2

[4] = system: MC38.K Cell Line; assay: Transfection of MC38.K Cell Line with FLuc mRNA LNPs (ONE-Glo EX luciferase signal); format: cell-based; conditions: 200 ng Fluc mRNA-LNP, 24 hours; Table 4
Method: as §1, §2

Row | SMILES | Total Liver Tissue Luciferin Signal (Photons/s) Ex-vivo - CD1 [1] [Photons/s] | Total Luciferin Signal (RLU) In Vitro - AML12 [2] [RLU] | Total Luciferin Signal (RLU) In Vitro - B16F10 [3] [RLU] | Total Luciferin Signal (RLU) In Vitro - MC38.K [4] [RLU]
1 | [2H]C([2H])(OC(=O)CCCN(C)C)C([2H])([2H])N(CCCCCCCC(=O)OCCCCCCCCC)CCCCCCCC(=O)OC(CCCCCCCC)CCCCCCCC [Compound 40, heptadecan-9-yl 8-((2-((4-(dimethylamino)butanoyl)oxy)ethyl-1,1,2,2-d4)(8-(nonyloxy)-8-oxooctyl)amino)octanoate] | 1.12E+08 | 4.13E+06 | 3.61E+06 | 8.09E+06
2 | CCCCCCCCC(CCCCCCCC)OC(=O)CCCCCCCN(CCCCCCCC(=O)OCCCCCCCCC(C)C)CCOC(=O)CCCN(C)C [Compound 3] | 8.57E+07 | 3.82E+06 | 4.58E+06 | 2.99E+06
3 | CCCCCCCCC(CCCCCCCF)OC(=O)CCCCCCCN(CCO)CCCCCC(=O)OCCCCCCC(C)C (stereo not shown) [Compound 26] | 5.54E+09 | 1.95E+05 | 1.73E+05 | 2.33E+05
4 | CCCCCCCCC(CCCCCCCC)C(=O)OCCCCCCCN(CCO)CCCCCCCC(=O)OCCCCCCCCC(C)C [Compound 4] | 1.06E+09 | 1.72E+06 | 2.16E+06 | 3.54E+06
5 | CCCCCCCCC(CCCCCCCC)OC(=O)CCCCCCCN(CCO)CCCCCCCOC(=O)CCCCCCCCC(C)C [Compound 11] | 4.88E+09 | 4.29E+06 | 7.92E+06 | 7.64E+06
6 | CCCCCCCCC(CCCCCCCCF)OC(=O)CCCCCN(CCCCO)CCCCCC(=O)OCCCCCCCCCCC(C)C (stereo not shown) [Compound 63, 1-fluoroheptadecan-9-yl 6-((4-hydroxybutyl)(6-((11-methyldodecyl)oxy)-6-oxohexyl)amino)hexanoate] | 3.02E+09 | 5.69E+05 | 6.91E+05 | 1.35E+07
7 | CCCCCCCCCOC(=O)C(C)CCCCCCN(CCO)CCCCCCCC(=O)OC(CCCCCCCC)CCCCCCCCF (stereo not shown) [Compound 61, nonyl 8-((8-((1-fluoroheptadecan-9-yl)oxy)-8-oxooctyl)(2-hydroxyethyl)amino)-2-methyloctanoate] | 1.38E+10 | 8.13E+05 | 9.46E+05 | 1.11E+07
8 | CCCCCCCCCCCOC(=O)CCCCCN(CCCCCCCC(=O)OC(CCCCCCCC)CCCCCC(C)C)CCOC(=O)CCCN(C)C (stereo not shown) [Compound 19] | 1.28E+08 | 6.91E+05 | 1.27E+06 | 1.90E+06
9 | CCCCCCCCCC(=O)OCCCCCCCN(CCO)CCCCCCCOC(=O)C(CCCCCCCC)CCCCCCCF (stereo not shown) [Compound 27] | 5.60E+09 | 3.02E+05 | 6.19E+04 | 2.37E+05
10 | CCCCCCCCC(CCCCCCCCF)OC(=O)CCCCCN(CCO)CCCCC(C)C(=O)OCCCCCCCCCCC(C)C (stereo not shown) [Compound 65, 11-methyldodecyl 6-((6-((1-fluoroheptadecan-9-yl)oxy)-6-oxohexyl)(2-hydroxyethyl)amino)-2-methylhexanoate] | 4.01E+09 | 3.24E+05 | 3.78E+05 | 3.81E+06
11 | CCCCCCCCCOC(=O)CCCCCCCN(CCCCO)CCCCCCCC(=O)OCC(CCCCCC)CCCCCCCCF (stereo not shown) [Compound 71, 10-fluoro-2-hexyldecyl 8-((4-hydroxybutyl)(8-(nonyloxy)-8-oxooctyl)amino)octanoate] | 1.75E+09 | 4.77E+06 | 1.67E+06 | 1.57E+07
12 | CC(C)CCCCCCCCOC(=O)CCCCCCCN(CCO)CCCCCCCC(=O)OCCCCCCCCC(C)C [Compound 45] | 4.18E+08 | 3.98E+05 | 1.98E+06 | 1.09E+06
13 | CCCCCCCCC(CCCCCCCCF)OC(=O)CCCCCN(CCCCO)CCCCC(C)C(=O)OCCCCCCCCCCC(C)C (stereo not shown) [Compound 64, 11-methyldodecyl 6-((6-((1-fluoroheptadecan-9-yl)oxy)-6-oxohexyl)(4-hydroxybutyl)amino)-2-methylhexanoate] | 4.39E+09 | 1.02E+06 | 1.10E+06 | 2.41E+07
14 | CCCCCCCCCCCCN(CCO)CCCCCCCC(=O)OC(CCCCCCCC)CCCCCCCC [Compound 41] | 8.12E+09 | 3.63E+06 | 2.52E+06 | 
15 | CCCCCCCCCCCOC(=O)CCCCCN(CCO)CCCCCCCC(=O)OC(CCCCCCCC)CCCCCC(C)C (stereo not shown) [Compound 18] | 4.74E+09 | 2.99E+06 | 2.65E+06 | 
16 | CCCCCCCCCOC(=O)C(C)CCCCCCN(CCO)CCCCCCCCOC(=O)C(CCCC)CCCCCCF (stereo not shown) [Compound 74, 8-((2-hydroxyethyl)(7-methyl-8-(nonyloxy)-8-oxooctyl)amino)octyl 2-butyl-8-fluorooctanoate] |  | 2.80E+04 | 6.66E+04 | 1.94E+05
17 | CCCCCCCCC(CCCCCCCCF)C(=O)OCCCCCCCN(CCCCO)CCCCCCCOC(=O)C(C)CCCCCCCC(C)C (stereo not shown) [Compound 89, 7-((7-((10-fluoro-2-octyldecanoyl)oxy)heptyl)(4-hydroxybutyl)amino)heptyl 2,10-dimethylundecanoate] |  | 7.66E+06 | 9.61E+06 | 3.88E+07
18 | CCCCCCCCCOC(=O)CCCCCCCN(CCO)CCCCCCCC(=O)OC(CCCCCCCF)CCCCCCCF [Compound 84, 1,15-difluoropentadecan-8-yl 8-((2-hydroxyethyl)(8-(nonyloxy)-8-oxooctyl)amino)octanoate] |  | 5.18E+04 | 8.32E+04 | 5.52E+05
19 | CCCCCCCCCOC(=O)C(C)CCCCCCN(CCCCO)CCCCCCCCOC(=O)C(CCCC)CCCCCCF (stereo not shown) [Compound 76, 8-((4-hydroxybutyl)(7-methyl-8-(nonyloxy)-8-oxooctyl)amino)octyl 2-butyl-8-fluorooctanoate] |  | 3.79E+04 | 7.14E+04 | 2.38E+05
20 | CCCCCCCCC(CCCCCCCC)OC(=O)CCCCCCCN(CCCCCOC(=O)CCCCCCCCC(C)C)CCOC(=O)CCCN(C)C [Compound 15] |  | 1.53E+06 | 1.97E+06 | 6.94E+05
21 | CCCCC(CCCCCCF)C(=O)OCCCCCCCCN(CCCCO)CCCCCCC(C)C(=O)OCCCCCCCCC(C)C (stereo not shown) [Compound 88, 8-((4-hydroxybutyl)(7-methyl-8-((9-methyldecyl)oxy)-8-oxooctyl)amino)octyl 2-butyl-8-fluorooctanoate] |  | 3.65E+05 | 9.41E+05 | 1.24E+07
22 | CCCCCCCCCOC(=O)CCCCCCCN(CCO)CCCCCCCC(=O)OCC(CCCCCCCC)CCCCCCCCF (stereo not shown) [Compound 80, 10-fluoro-2-octyldecyl 8-((2-hydroxyethyl)(8-(nonyloxy)-8-oxooctyl)amino)octanoate] |  | 3.01E+06 | 2.97E+06 | 1.95E+07
